assay: Human HepG2 cell viability assay in 384 well format; assay type: toxicity, cell-based; parameters: dose 125 nL, time 70.5 hour; cytotoxicity at 70.5 h: concentration not given beside the values; conditions: HepG2 cells, read-out: Inhibition

Row | SMILES | cytotoxicity at 70.5 h
1 | CN1Cc2cc(F)ccc2N(CC(C)(C)O)CCC1=O | 8.74%
2 | COc1cccc(-n2c(C)cc(C(=O)NCCCC(N)=O)c2C)c1 | -10.3%
3 | O=C(CC1COCCN1C(=O)c1cscn1)c1ccccc1 (centres undefined) | -11.8%
4 | COc1ccc2nc(NC(=O)c3c(C(=O)O)cnn3C)sc2c1 | -8.88%
5 | Cc1ccc(NC(=O)N2CCC3(CCC(C(=O)N(C)C)O3)CC2)cc1 (centres undefined) | -4.12%
6 | COCCN1CCC12CCN(C(=O)c1ccc(C)nc1)C2 (centres undefined) | -16.4%
7 | NC(=O)Nc1cc(F)ccc1SCC(F)F | -8.84%
8 | Cc1nc2cc(OCc3nc(C(=O)NC(C)(CO)CO)co3)ccc2s1 | 6.62%
9 | CS(=O)(=O)c1ccc(C(=O)N2CCCC(n3cncn3)C2)o1 (centres undefined) | 21.1%
10 | CC(C)CCN1CC2(CCN(C(=O)C3(C)CCCCO3)CC2)OC1=O (centres undefined) | 49.2%
11 | CCCn1cc(NC(=O)c2ccc(NC(=O)NC3CC3)cc2)ccc1=O | -10.8%
12 | Cc1ccc(NC(=O)N2CCC(NC(=O)c3ccc(C)o3)CC2)cc1 | -11.5%
13 | O=C(N1CCOCC1)[C@@]12CCO[C@@H]1CCN(CCN1CCCCC1)C2 | -20.4%
14 | Cc1ccnc(NC(=O)CSCc2cccnc2)c1 | -2.67%
15 | CN(Cc1cc(C(C)(C)C)n[nH]1)Cc1c[nH]nc1-c1ccc(F)cc1 | -4.87%
16 | Cc1nc(CCNC(=O)C2CC(=O)N(C(C)C)C2)sc1C (centres undefined) | -10.3%
17 | CN(Cc1ccccc1)C(=O)Cn1nc(N2CCSCC2)ccc1=O | -6.57%
18 | CC(C)NC(=O)N1CC[C@@H](N(C)C)[C@@H]1Cc1ccccc1 | -10.3%
19 | Cn1ncnc1NS(=O)(=O)c1ccccc1 | 6.82%
20 | Cn1cc(CN2CCn3cnc(COCC4CC4)c3C2)cn1 | 14.1%
21 | Cc1cc(NC(=O)NCCCSc2nncn2C)no1 | -11.7%
22 | O=C(CN1CCC2(CC1)NC(=O)c1cc(Br)ccc1N2)NC1CC1 | -1.52%
23 | Cc1ccnc(OC[C@]23COC[C@H]2CN(C(=O)c2ccnn2C)C3)n1 | -8.86%

Row | SMILES | cytotoxicity at 70.5 h
24 | O=C(CC1CC1)N1C[C@@H]2CCN(c3cccnc3)C[C@@H]2C1 | -11.6%
25 | O=C1CC(N(C(=O)CCc2c[nH]c3ccccc23)C2CC2)C(=O)N1 (centres undefined) | -14.1%
26 | COc1ccc(Oc2ccc(CNC(=O)C(C)n3cncn3)cn2)cc1 (centres undefined) | -0.159%
27 | CN1CCCC1CCNC(=O)c1ccccc1-n1cnc(CN)c1 (centres undefined) | 0.899%
28 | CCCOCC1CCN(C(=O)Cn2cccc(C(F)(F)F)c2=O)C1 (centres undefined) | 3.49%
29 | O=C1NCC(C(=O)Nc2ncc(Cc3cccc(F)c3)s2)N1 (centres undefined) | -6.09%
30 | N#CC1(NC(=O)c2ccc(-c3nc(C4CC4)n[nH]3)cc2)CCSC1 (centres undefined) | -18.6%
31 | CC(=O)c1cnc(NCC2OCCc3ccccc32)nc1C (centres undefined) | -9.22%
32 | Cc1ccc(CN2C[C@H]3C(=O)N(CC4CC4)C[C@@]3(C(=O)O)C2)c(F)c1F | 9.58%
33 | CC(C)CN(CC(O)c1ccc(F)cc1)C(=O)c1cnsn1 (centres undefined) | -3.42%
34 | CNc1cnc(CC2COCCN(Cc3ccccc3)C2)cn1 (centres undefined) | -2.53%
35 | CNC(=O)COC1COC2(CCN(c3cnccn3)CC2)C1 (centres undefined) | 4.72%
36 | Cc1cccc(CN(Cc2ccc(C)o2)C2CC(C)(C)NC(C)(C)C2)n1 | -9.61%
37 | O=C(CC1CCN(c2ncnc3ccccc23)CC1)N1CCCC1 | -6.95%
38 | O=C1CCCCN1CCC(=O)N1CCCCC1c1ccc(F)cc1 (centres undefined) | -6.63%
39 | Cc1c(CNC(=O)c2cn(CCC3CCCCN3)nn2)cnn1C (centres undefined) | -1.47%
40 | COc1ccc2c(c1)nc1n2[C@@H](CNCc2cnn(C)c2)COC1 | -8.24%
41 | CC(C)NC(=O)N[C@H]1C[C@@H](c2nc(-c3ccncc3)no2)N(C)C1 | -5.9%
42 | Cc1ccoc1C(=O)NCc1ccnc(OCC(F)(F)F)c1 | -3.36%
43 | Nc1ncc(C(=O)N2CCC(O)(CO)CC2)c(-c2ccccc2)n1 | -15.6%
44 | Cc1cc(NC(=O)C(C)N2CCN(c3nccs3)CC2)on1 (centres undefined) | -3.21%
45 | COC(C)(C)CC(C)NCc1cn2ccccc2n1 (centres undefined) | -16.8%
46 | CCS(=O)(=O)N1CCC(c2nnc(C(F)(F)F)o2)CC1 | 5.3%

Row | SMILES | cytotoxicity at 70.5 h
47 | CC(=O)c1cccc(OCC(=O)NS(=O)(=O)c2cccs2)c1 | -6.58%
48 | Cc1ccccc1CSc1nc(N)cc(N2CCCC(O)C2)n1 (centres undefined) | 0.482%
49 | O=C(NCc1ccc2c(c1)OCO2)[C@@H]1C=CCN1c1ncccn1 | -1.63%
50 | Clc1ccc(C(CNCc2cccnc2)n2cccn2)cc1 (centres undefined) | 24.3%
51 | Cc1cc(C)c2c(OCC(=O)NCC(O)C(F)(F)F)nn(C)c2n1 (centres undefined) | -15.2%
52 | CC(C)c1cc(C(=O)N2CCCC3(CCNC3)C2)no1 (centres undefined) | -3.49%
53 | CN(C)C(=O)C1CN(Cc2nccs2)CCN(S(C)(=O)=O)C1 (centres undefined) | -4.9%
54 | COc1ccc(CN2CCO[C@H]3CN(C(C)=O)CC[C@H]3C2=O)cc1 | 19.5%
55 | COCC(=O)NC(C)c1sc(-c2ccccc2F)nc1C (centres undefined) | -2.79%
56 | Cc1cc(C(=O)NS(C)(=O)=O)c(C)n1-c1ccccc1 | -13.1%
57 | CCc1nccc(CN2CCCC(CNC(=O)c3occc3C)C2)n1 (centres undefined) | -10.1%
58 | CC(C)N(C)C(=O)Cn1ncc(N(C)CCc2ccccc2)cc1=O | -3.47%
59 | NC(=O)CN1CC2(CCC1=O)CCN(C(=O)c1ccccc1F)CC2 | 33.9%
60 | c1cc(-c2nc(CN3CCc4c(ncn4C4CC4)C3)cs2)cs1 | -8.75%
61 | Cc1ccc(CN(Cc2ccncc2)C2CC(C)(C)NC(C)(C)C2)o1 | -2.36%
62 | CCc1ocnc1C(=O)N1CCOC(c2nc(C(C)C)n[nH]2)C1 (centres undefined) | -10.4%
63 | O=C(C1CC1)N1CCN(c2ccc(-n3cncn3)nn2)CC1 | -3.85%
64 | O=S(=O)(NC1CCCN(c2ncccn2)C1)N1CCCCCC1 (centres undefined) | -7.28%
65 | Cc1ccoc1C(=O)N1CCCN(Cc2cnn(C)c2)CC1 | -17.4%
66 | Cc1cccc(S(=O)(=O)NCC(C)N2CCN(C)CC2)c1Cl (centres undefined) | -1.95%
67 | CN(C)C(=O)c1ccc(-c2cscn2)cc1 | 1.52%
68 | CN(Cc1ccc(N2CCCCC2)cc1)Cc1noc(C(C)(C)C)n1 | -9.02%
69 | O=C(c1cscn1)N1CCc2ncc(Cn3cncn3)n2CC1 | -6.09%

Row | SMILES | cytotoxicity at 70.5 h
70 | COc1ccc(CNCC2CCN(c3ccccc3OC)C2)cc1O (centres undefined) | 5.43%
71 | CC(C)CN1CCC2(CCN(Cc3ccoc3)CC2)C1=O | -12.7%
72 | Cc1ccoc1C(=O)N1CCn2cc(CN3CCCC3)nc2C1 | -4.12%
73 | CC(O)CN(C(=O)NC1CCN(CC2CCCCC2)CC1)C(C)C (centres undefined) | 1.48%
74 | CCn1ccc(CN(C)C(=O)CSc2nnc(N)s2)n1 | -2.09%
75 | CCN(Cc1ccc2c(c1)OCCO2)C(=O)NCCc1cnn(C)c1 | 0.223%
76 | COc1cc(N2CCCC(c3nccn3CCN(C)C)C2)nc(N)n1 (centres undefined) | -8.19%
77 | Cc1cc(C(=O)N[C@H]2CC[C@@]3(CCC(=O)N3CC3CC3)CC2)no1 | -15.5%
78 | O=C(C1CCCC1)N1CCC(Nc2ccncn2)CC1 | -3.92%
79 | Cc1nnc2n1CC(CNc1ncnc3ccccc13)CC2 (centres undefined) | -11.6%
80 | Cc1nnc(C(C)N2CCCN(Cc3ccc(F)cc3)CC2)o1 (centres undefined) | -2.19%
81 | CC(=O)Nc1cccc(OCCNC(=O)N(C)Cc2ccco2)c1 | 0.512%
82 | COc1ccnc(N2CCN(C(=O)CCc3cnn(C)c3)CC2)n1 | -11.9%
83 | COC(=O)C(c1cc(F)ccc1F)N(C)C(=O)c1cnc(C)cn1 (centres undefined) | -9.59%
84 | O=C1COC2(CCN(C(=O)c3cnccn3)CC2)CN1CC1CC1 | 18.8%
85 | COC1CCCOC12CCN(C(=O)c1ccc3[nH]nnc3c1)CC2 (centres undefined) | -5.57%
86 | Cc1ncc(CN(C)Cc2nc3cc(Cl)ccc3n2C)s1 | -18.2%
87 | CCC(CC)CN1CCC2(CCCN(c3ncccn3)C2)C1 (centres undefined) | 25.1%
88 | CN1CCCC1CNC(=O)CCOc1ccc(Br)cc1 (centres undefined) | 2.76%
89 | Cc1cnn(CC2CCCCN2C(=O)c2cccnc2N(C)C)c1 (centres undefined) | 9.64%
90 | Cc1cc(Nc2ncccn2)nc(C2CCCN(CCO)C2)n1 (centres undefined) | -9.85%
91 | CCOc1ccc(CN2CCCC(c3cc4ncccc4[nH]3)C2)cc1 (centres undefined) | 6.95%
92 | Cc1cc(C)n(CC2CCCN2C(=O)c2ccc3c(c2)COC3)n1 (centres undefined) | -13.3%

Row | SMILES | cytotoxicity at 70.5 h
93 | O=S(=O)(CCN1CCOC(Cn2cccn2)C1)C(F)(F)F (centres undefined) | 11.7%
94 | Cc1noc(C)c1CN1C[C@@H]2COC[C@@H](C(=O)N3CCCO3)[C@@H]2C1 | 51.2%
95 | NC(=O)C1CCN(c2nc3nccc(-c4ccncc4)c3c(=O)[nH]2)CC1 | -1.26%
96 | COCCc1noc(CNC(=O)C2CC(=O)N(C(C)(C)C)C2)n1 (centres undefined) | -7.37%
97 | Cc1nccn1CCCN1CCC(c2nccn2CC2CCC2)CC1 | -3.77%
98 | CC(O)CNC(=O)NCc1cccnc1OC1CCCC1 (centres undefined) | -6.8%
99 | CNC(=O)c1csc(-c2ccoc2)n1 | -4.01%
100 | CS(=O)(=O)NCC1CCCN(C(=O)Nc2ccccc2F)C1 (centres undefined) | 1.05%
101 | COc1ncccc1CNC(=O)c1cnc(C)cn1 | -3.16%
102 | CCOc1ccc(Cl)c(C(=O)N2CCN(C(=O)c3ccoc3C)CC2)n1 | -1.97%
103 | Cc1cccnc1CN1CCN(C(=O)CCn2ccccc2=O)CC1 | 0.0273%
104 | Cc1cc(C(=O)NCc2ccnc(N3CCN(C)CC3)c2)c(C)s1 | -18%
105 | NC(=O)CSc1ccccc1NCc1nc(Cc2ccccc2)no1 | -6.14%
106 | CN(C)C(=O)Cc1ccc(-c2cccc3c2CCNC3)cc1 | -21.8%
107 | CCNc1ncc(C(=O)NCCc2csc(CSC)n2)cn1 | -4.44%
108 | CC(C)COCC(NC(=O)Cc1ccn[nH]1)c1ccco1 (centres undefined) | -6.61%
109 | Cn1ncc2c(=O)[nH]c(CN3CCCc4cc(F)cc(F)c43)nc21 | -15.9%
110 | O=C(NCCO)NC(c1ccccc1)c1ccc2c(c1)CCCO2 (centres undefined) | -12.9%
111 | CC(Nc1nc(-c2ccncc2)nc2c1CCNC2)c1ccccc1 (centres undefined) | -9.03%
112 | O=C(Cc1ccc(F)cc1)NCCNS(=O)(=O)c1ccc(F)c(F)c1 | -1.6%
113 | O=C(NCc1ccc(-n2cncn2)nc1)c1ccc2c(c1)CCC2 | 0.85%
114 | Cc1ccc(CN2CCN(c3nc4c(s3)c(C)nn4C)C(C)C2=O)cc1 (centres undefined) | 31.2%

Reference: ChEMBL document CHEMBL3507680, “University of Dundee, Gates Library screen for HepG2 cell viability”
